Experimental data reported in patent US9758489B2, “Azepane derivatives and methods of treating hepatitis B infections” (Novira Therapeutics, Inc., priority 2013, dated 2017).

Legend:
[1] = target: HBV C150Bo protein (mutant C150 HBV capsid protein labeled with BoDIPY-FL) (Hepatitis B virus genotype D subtype adw, UniProt P03147, C107A/C48A/C61A/R150C); assay: HBV assembly assay (fluorescence quenching in vitro capsid assembly); format: biochemical; conditions: for Activity (HBV assembly assay): at about 10 μM, 50 mM Hepes pH 7.5, 150 mM NaCl, 1 hour at room temperature; for IC50: HBV assembly assay, read-out: Activity (HBV assembly potency, IC50)
[2] = tested on: HBV replication in HepG2-2.2.15 cells; assay: Dot-blot assay: inhibition of HBV replication in HBV-producing hepatoma cell line; format: cell-based; conditions: Hepatitis B virus, 144 h, six days, reduction in HBV DNA levels
Procedure: Compounds active in the HBV assembly assay are tested for their activity and toxicity in cellular assay. In the first anti-viral assay, the ability of compounds to inhibit HBV replication in an HBV-producing hepatoma cell line using the dot-blot method is evaluated.
Briefly, confluent monolayers of HepG2-2.2.15 cells are incubated with complete medium containing various concentrations of a test compound. Three days later, the culture medium is replaced with fresh medium containing the appropriately diluted test compound. Six days following the initial administration of the test compound, the cell culture supernatant is collected, and cell lysis is performed. The samples are applied onto Nylos membranes and DNA is immobilized to the membrane by UV cross-linking. After pre-hybridization, the HBV probe is added and the hybridization is performed overnight. The membranes are exposed to the Kodak films; antiviral activity is calculated from the reduction in HBV DNA levels (EC50). The EC50 for antiviral activity is calculated from the dose response curves of active compounds. Assay performance over time is monitored by the use of the standard positive control compounds ETV, BAY 41-4109, and HAP-1.
In the first anti-viral assay, the ability of compounds to inhibit HBV replication in an HBV-producing hepatoma cell line using the dot-blot method was evaluated.
Confluent monolayers of HepG2-2.2.15 cells were incubated with complete medium containing various concentrations of a test compound. Three days later, the culture medium was replaced with fresh medium containing the appropriately diluted test compound. Six days following the initial administration of the test compound, the cell culture supernatant was collected, and cell lysis was performed. The samples were applied onto Nylos membranes and DNA was immobilized to the membrane by UV cross-linking. After pre-hybridization, the HBV probe was added and the hybridization was performed overnight. The membranes were exposed to the Kodak films; antiviral activity was calculated from the reduction in HBV DNA levels (EC50). The EC50 for antiviral activity was calculated from the dose response curves of active compounds. Assay performance over time was monitored by the use of the standard positive control compounds ETV, BAY 41-4109, and HAP-1.

Sequence of HBV C150Bo protein (mutant C150 HBV capsid protein labeled with BoDIPY-FL) (P03147 1-150 C48A/C61A/C107A/R150C): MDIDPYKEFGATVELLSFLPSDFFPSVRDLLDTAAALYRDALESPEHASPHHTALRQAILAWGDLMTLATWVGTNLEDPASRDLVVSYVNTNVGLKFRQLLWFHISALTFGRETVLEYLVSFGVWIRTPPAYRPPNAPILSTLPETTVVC

Structure (SMILES) | Activity (HBV assembly assay) [1] | inhibition at 10 µM [2] [%] | IC50 [1] [µM]
O=C(Nc1ccc(F)c(F)c1)N1CCCN(c2c(Cl)cncc2Cl)CC1 [Compound 004] | + (>50% activity at about 10 μM) | – | –
O=C(Nc1ccc(F)c(Cl)c1)N1CCCN(c2c(Cl)cncc2Cl)CC1 [Compound 005] | + (>50% activity at about 10 μM) | – | –
O=C(Nc1cccc(Cl)c1)N1CCCN(c2c(Cl)cncc2Cl)CC1 [Compound 010] | + (>50% activity at about 10 μM) | > 50 | –
O=C(Nc1cccc(F)c1)N1CCCN(c2c(Cl)cncc2Cl)CC1 [Compound 011] | + (>50% activity at about 10 μM) | > 50 | –
O=C(Nc1cc(F)c(F)c(F)c1)N1CCCN(c2c(Cl)cncc2Cl)CC1 [Compound 025] | – | > 50 | –
O=C(Nc1ccc(F)c(Cl)c1)N1CCCN(c2c(Cl)cncc2Cl)CC1 [Compound 040] | – | > 50 | –
O=C(Nc1ccc(F)c(Cl)c1)N1CCCN(c2ccnc(Cl)c2Cl)CC1 [Compound 041] | – | > 50 | –
Cc1cncc(Cl)c1N1CCCN(C(=O)Nc2ccc(F)c(Cl)c2)CC1 [Compound 044] | + (>50% activity at about 10 μM) | > 50 | –
O=C(Nc1ccc(F)c(Cl)c1)N1CCCN(c2c(F)cncc2Cl)CC1 [Compound 045] | + (>50% activity at about 10 μM) | > 50 | –
Cc1cncc(C)c1N1CCCN(C(=O)Nc2ccc(F)c(Cl)c2)CC1 [Compound 047] | + (>50% activity at about 10 μM) | > 50 | –
O=C(Nc1ccc(Cl)c(F)c1)N1CCCN(c2c(Cl)cncc2Cl)CC1 [Compound 049] | – | > 50 | –
O=C(Nc1ccc(F)c(Cl)c1)C1CCCN(c2c(Cl)cncc2Cl)CC1 (stereo not shown) [Compound 055] | + (>50% activity at about 10 μM) | – | –
O=C(Nc1ccc(F)c(F)c1)C1CCCN(c2c(Cl)cncc2Cl)CC1 (stereo not shown) [Compound 056] | + (>50% activity at about 10 μM) | > 50 | –
O=C(Nc1ccc(F)c(Cl)c1)N1CC2CC(C1)N(c1c(Cl)cncc1Cl)C2 (stereo not shown) [Compound 065] | – | > 50 | –
O=C(Nc1ccc(F)c(Cl)c1)N1CC2CC1CCN2c1c(Cl)cncc1Cl (stereo not shown) [Compound 077] | – | > 50 | –
CC1CN(c2c(Cl)cncc2Cl)CCCN1C(=O)Nc1ccc(F)c(Cl)c1 (stereo not shown) [Compound 087] | – | > 50 | –
O=C(Nc1ccc(F)c(Cl)c1)N1CCCN(c2c(Cl)cncc2Cl)CC1Cc1ccccc1 (stereo not shown) [Compound 091] | + (>50% activity at about 10 μM) | – | < 20

Structure (SMILES) | Activity (HBV assembly assay) [1] | inhibition at 10 µM [2] [%] | IC50 [1] [µM]
CC1CCN(c2c(Cl)cncc2Cl)CCN1C(=O)Nc1ccc(F)c(Cl)c1 (stereo not shown) [Compound 092] | + (>50% activity at about 10 μM) | > 50 | < 20
CC1CN(C(=O)Nc2ccc(F)c(Cl)c2)CCN(c2c(Cl)cncc2Cl)C1 (stereo not shown) [Compound 097] | + (>50% activity at about 10 μM) | > 50 | –
COC(=O)C1CN(C(=O)Nc2ccc(F)c(Cl)c2)CCN(c2c(Cl)cncc2Cl)C1 (stereo not shown) [Compound 098] | + (>50% activity at about 10 μM) | – | –
O=C(Nc1ccc(F)c(Cl)c1)N1CCN(c2c(Cl)cncc2Cl)CC(CO)C1 (stereo not shown) [Compound 099] | + (>50% activity at about 10 μM) | > 50 | –
O=C(Nc1ccc(F)c(Cl)c1)N1CCN(c2c(Cl)cncc2Cl)CC(O)C1 (stereo not shown) [Compound 100] | + (>50% activity at about 10 μM) | > 50 | –
CCc1cncc(Cl)c1N1CCCN(C(=O)Nc2ccc(F)c(Cl)c2)CC1 [Compound 107] | + (>50% activity at about 10 μM) | > 50 | < 20
CCc1cncc(Cl)c1N1CCCN(C(=O)Nc2cccc(Cl)c2)CC1 [Compound 108] | + (>50% activity at about 10 μM) | – | < 20
O=C(Nc1ccc(F)c(Cl)c1)N1CCCN(c2c(Cl)cncc2C2CC2)CC1 [Compound 109] | + (>50% activity at about 10 μM) | > 50 | < 20
O=C(Nc1cccc(Cl)c1)N1CCCN(c2c(Cl)cncc2C2CC2)CC1 [Compound 110] | + (>50% activity at about 10 μM) | – | < 20
O=C(Nc1ccc(F)c(Cl)c1)N1CCCN(c2c(Cl)cncc2Cc2ccccc2)CC1 [Compound 115] | – | > 50 | –
O=C(Nc1ccc(F)c(F)c1)N1C2CCC1CN(c1c(Cl)cncc1Cl)CC2 (stereo not shown) [Compound 120] | + (>50% activity at about 10 μM) | > 50 | –
O=C(Nc1ccc(F)c(Cl)c1)N1C2CCC1CN(c1c(Cl)cncc1Cl)CC2 (stereo not shown) [Compound 121] | – | > 50 | –
O=C(Nc1ccc(F)c(Cl)c1)N1CCCN(c2c(Cl)cncc2CO)CC1 [Compound 126] | – | > 50 | –
COCCc1cncc(Cl)c1N1CCCN(C(=O)Nc2ccc(F)c(Cl)c2)CC1 [Compound 129] | – | > 50 | –
COC1CN(C(=O)Nc2ccc(F)c(Cl)c2)CCN(c2c(Cl)cncc2Cl)C1 (stereo not shown) [Compound 130] | – | > 50 | –
CCOC1CN(C(=O)Nc2ccc(F)c(Cl)c2)CCN(c2c(Cl)cncc2Cl)C1 (stereo not shown) [Compound 131] | – | > 50 | –
